# Assay results published in patent publication US8192962B2, “Processes for detecting toxic substances” (Daikin Industries, Ltd., priority 2001, dated 2012).
# Tested on: Metabolism protein genes
# Assay: DNA chip mRNA expression in yeast, metabolism protein genes (Table 7)
# Format: cell-based, Saccharomyces cerevisiae S288C
# In short: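 Ratios compare mRNA levels in stressed and control S. cerevisiae. Each toxicant was applied for two hours to log-phase cultures at 25° C. at a sub-lethal, growth-inhibiting level; fluorescent cDNA (Cy3- or Cy5-dUTP) was hybridized to a genome-wide yeast chip for over 12 h at 65° C.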
smiles,measurement,setting,value
"S=C([S-])NCCNC(=S)[S-].[Zn+2] [(11), zinc N,N′-ethylenebis(dithiocarbamate)]",The level of expressed mRNA in the presence of chemical substance/The level of expressed mRNA in the absence of chemical substance,yeast gene YJR155W,15.4
same,The level of expressed mRNA in the presence of chemical substance/The level of expressed mRNA in the absence of chemical substance,yeast gene YKL035W,2.1
same,level of expressed mRNA in the presence/in the absence of chemical substance,yeast gene YKL060C,2.1
same,The level of expressed mRNA in the presence of chemical substance/The level of expressed mRNA in the absence of chemical substance,yeast gene YKL091C,1.7
same,The level of expressed mRNA in the presence of chemical substance/The level of expressed mRNA in the absence of chemical substance,yeast gene YKL104C,2.2
same,level of expressed mRNA in the presence/in the absence of chemical substance,yeast gene YKL148C,1.5
same,The level of expressed mRNA in the presence of chemical substance/The level of expressed mRNA in the absence of chemical substance,yeast gene YKL152C,1.7
same,level of expressed mRNA in the presence/in the absence of chemical substance,yeast gene YKL157W,1.5
same,The level of expressed mRNA in the presence of chemical substance/The level of expressed mRNA in the absence of chemical substance,yeast gene YKL213C,1.3
same,The level of expressed mRNA in the presence of chemical substance/The level of expressed mRNA in the absence of chemical substance,yeast gene YKL215C,0.5
same,The level of expressed mRNA in the presence of chemical substance/The level of expressed mRNA in the absence of chemical substance,yeast gene YKR039W,1.9
same,The level of expressed mRNA in the presence of chemical substance/The level of expressed mRNA in the absence of chemical substance,yeast gene YLL058W,2.0
same,level of expressed mRNA in the presence/in the absence of chemical substance,yeast gene YLR006C,1.5
same,level of expressed mRNA in the presence/in the absence of chemical substance,yeast gene YLR044C,1.1
same,level of expressed mRNA in the presence/in the absence of chemical substance,yeast gene YLR056W,0.8
same,level of expressed mRNA in the presence/in the absence of chemical substance,yeast gene YLR058C,2.6
same,level of expressed mRNA in the presence/in the absence of chemical substance,yeast gene YLR081W,2.6
same,level of expressed mRNA in the presence/in the absence of chemical substance,yeast gene YLR089C,1.7
same,The level of expressed mRNA in the presence of chemical substance/The level of expressed mRNA in the absence of chemical substance,yeast gene YLR180W,1.7
same,The level of expressed mRNA in the presence of chemical substance/The level of expressed mRNA in the absence of chemical substance,yeast gene YLR273C,1.4
same,level of expressed mRNA in the presence/in the absence of chemical substance,yeast gene YLR284C,1.5
same,The level of expressed mRNA in the presence of chemical substance/The level of expressed mRNA in the absence of chemical substance,yeast gene YLR299W,1.7
same,The level of expressed mRNA in the presence of chemical substance/The level of expressed mRNA in the absence of chemical substance,yeast gene YLR300W,1.0
same,level of expressed mRNA in the presence/in the absence of chemical substance,yeast gene YLR304C,1.6
same,The level of expressed mRNA in the presence of chemical substance/The level of expressed mRNA in the absence of chemical substance,yeast gene YLR307W,0.8
same,The level of expressed mRNA in the presence of chemical substance/The level of expressed mRNA in the absence of chemical substance,yeast gene YLR348C,1.3
same,level of expressed mRNA in the presence/in the absence of chemical substance,yeast gene YLR354C,1.7
same,level of expressed mRNA in the presence/in the absence of chemical substance,yeast gene YLR372W,0.9
same,level of expressed mRNA in the presence/in the absence of chemical substance,yeast gene YML022W,1.2
same,The level of expressed mRNA in the presence of chemical substance/The level of expressed mRNA in the absence of chemical substance,yeast gene YML054C,1.4
same,The level of expressed mRNA in the presence of chemical substance/The level of expressed mRNA in the absence of chemical substance,yeast gene YML058W,3.3
same,The level of expressed mRNA in the presence of chemical substance/The level of expressed mRNA in the absence of chemical substance,yeast gene YML070W,1.5
same,The level of expressed mRNA in the presence of chemical substance/The level of expressed mRNA in the absence of chemical substance,yeast gene YML100W,3.2
same,The level of expressed mRNA in the presence of chemical substance/The level of expressed mRNA in the absence of chemical substance,yeast gene YMR008C,1.3
same,level of expressed mRNA in the presence/in the absence of chemical substance,yeast gene YMR011W,1.5
same,level of expressed mRNA in the presence/in the absence of chemical substance,yeast gene YMR015C,1.0
same,The level of expressed mRNA in the presence of chemical substance/The level of expressed mRNA in the absence of chemical substance,yeast gene YMR020W,1.5
same,level of expressed mRNA in the presence/in the absence of chemical substance,yeast gene YMR083W,1.6
same,The level of expressed mRNA in the presence of chemical substance/The level of expressed mRNA in the absence of chemical substance,yeast gene YMR105C,3.0
same,The level of expressed mRNA in the presence of chemical substance/The level of expressed mRNA in the absence of chemical substance,yeast gene YMR189W,8.2
same,level of expressed mRNA in the presence/in the absence of chemical substance,yeast gene YMR205C,1.0
same,level of expressed mRNA in the presence/in the absence of chemical substance,yeast gene YMR261C,0.8
same,The level of expressed mRNA in the presence of chemical substance/The level of expressed mRNA in the absence of chemical substance,yeast gene YMR271C,1.7
same,The level of expressed mRNA in the presence of chemical substance/The level of expressed mRNA in the absence of chemical substance,yeast gene YMR296C,0.8
same,level of expressed mRNA in the presence/in the absence of chemical substance,yeast gene YMR323W,2.5
same,The level of expressed mRNA in the presence of chemical substance/The level of expressed mRNA in the absence of chemical substance,yeast gene YNL012W,1.6
same,level of expressed mRNA in the presence/in the absence of chemical substance,yeast gene YNL025C,1.1
same,The level of expressed mRNA in the presence of chemical substance/The level of expressed mRNA in the absence of chemical substance,yeast gene YNL045W,2.1
same,The level of expressed mRNA in the presence of chemical substance/The level of expressed mRNA in the absence of chemical substance,yeast gene YNL104C,2.1
same,The level of expressed mRNA in the presence of chemical substance/The level of expressed mRNA in the absence of chemical substance,yeast gene YNL106C,0.9
same,The level of expressed mRNA in the presence of chemical substance/The level of expressed mRNA in the absence of chemical substance,yeast gene YNL169C,0.8
same,level of expressed mRNA in the presence/in the absence of chemical substance,yeast gene YNL192W,1.1
same,The level of expressed mRNA in the presence of chemical substance/The level of expressed mRNA in the absence of chemical substance,yeast gene YNL231C,1.3
same,The level of expressed mRNA in the presence of chemical substance/The level of expressed mRNA in the absence of chemical substance,yeast gene YNL322C,0.6
same,The level of expressed mRNA in the presence of chemical substance/The level of expressed mRNA in the absence of chemical substance,yeast gene YNL331C,21.8
same,The level of expressed mRNA in the presence of chemical substance/The level of expressed mRNA in the absence of chemical substance,yeast gene YNL332W,2.6
same,The level of expressed mRNA in the presence of chemical substance/The level of expressed mRNA in the absence of chemical substance,yeast gene YNR019W,0.7
same,The level of expressed mRNA in the presence of chemical substance/The level of expressed mRNA in the absence of chemical substance,yeast gene YNR033W,0.4
same,The level of expressed mRNA in the presence of chemical substance/The level of expressed mRNA in the absence of chemical substance,yeast gene YNR059W,1.0
same,The level of expressed mRNA in the presence of chemical substance/The level of expressed mRNA in the absence of chemical substance,yeast gene YOL058W,2.3
same,level of expressed mRNA in the presence/in the absence of chemical substance,yeast gene YOL086C,2.6
same,level of expressed mRNA in the presence/in the absence of chemical substance,yeast gene YOL108C,1.1
same,level of expressed mRNA in the presence/in the absence of chemical substance,yeast gene YOL116W,1.0
same,The level of expressed mRNA in the presence of chemical substance/The level of expressed mRNA in the absence of chemical substance,yeast gene YOL126C,1.8
same,The level of expressed mRNA in the presence of chemical substance/The level of expressed mRNA in the absence of chemical substance,yeast gene YOL153C,2.4
same,level of expressed mRNA in the presence/in the absence of chemical substance,yeast gene YOL156W,1.1
same,The level of expressed mRNA in the presence of chemical substance/The level of expressed mRNA in the absence of chemical substance,yeast gene YOL165C,17.6
same,level of expressed mRNA in the presence/in the absence of chemical substance,yeast gene YOR002W,1.2
same,level of expressed mRNA in the presence/in the absence of chemical substance,yeast gene YOR085W,1.1
same,The level of expressed mRNA in the presence of chemical substance/The level of expressed mRNA in the absence of chemical substance,yeast gene YOR099W,1.2
same,level of expressed mRNA in the presence/in the absence of chemical substance,yeast gene YOR103C,1.0
same,level of expressed mRNA in the presence/in the absence of chemical substance,yeast gene YOR108W,1.4
same,level of expressed mRNA in the presence/in the absence of chemical substance,yeast gene YOR128C,0.8
same,The level of expressed mRNA in the presence of chemical substance/The level of expressed mRNA in the absence of chemical substance,yeast gene YOR130C,0.6
same,level of expressed mRNA in the presence/in the absence of chemical substance,yeast gene YOR142W,1.5
same,level of expressed mRNA in the presence/in the absence of chemical substance,yeast gene YOR176W,1.4
same,level of expressed mRNA in the presence/in the absence of chemical substance,yeast gene YOR178C,4.1
same,level of expressed mRNA in the presence/in the absence of chemical substance,yeast gene YOR251C,1.0
same,The level of expressed mRNA in the presence of chemical substance/The level of expressed mRNA in the absence of chemical substance,yeast gene YOR336W,1.4
same,The level of expressed mRNA in the presence of chemical substance/The level of expressed mRNA in the absence of chemical substance,yeast gene YOR347C,1.4
same,level of expressed mRNA in the presence/in the absence of chemical substance,yeast gene YOR348C,1.1
same,The level of expressed mRNA in the presence of chemical substance/The level of expressed mRNA in the absence of chemical substance,yeast gene YPL017C,0.4
same,level of expressed mRNA in the presence/in the absence of chemical substance,yeast gene YPL028W,1.2
same,level of expressed mRNA in the presence/in the absence of chemical substance,yeast gene YPL057C,1.6
same,level of expressed mRNA in the presence/in the absence of chemical substance,yeast gene YPL135W,1.3
same,level of expressed mRNA in the presence/in the absence of chemical substance,yeast gene YPL148C,3.5
same,The level of expressed mRNA in the presence of chemical substance/The level of expressed mRNA in the absence of chemical substance,yeast gene YPR026W,1.6
same,level of expressed mRNA in the presence/in the absence of chemical substance,yeast gene YPR113W,2.0
same,The level of expressed mRNA in the presence of chemical substance/The level of expressed mRNA in the absence of chemical substance,yeast gene YPR160W,4.4
same,level of expressed mRNA in the presence/in the absence of chemical substance,yeast gene YPR165W,1.0
same,The level of expressed mRNA in the presence of chemical substance/The level of expressed mRNA in the absence of chemical substance,yeast gene YPR167C,1.9
same,level of expressed mRNA in the presence/in the absence of chemical substance,yeast gene YPR183W,2.5
same,The level of expressed mRNA in the presence of chemical substance/The level of expressed mRNA in the absence of chemical substance,yeast gene YPR184W,3.6
